Reference: patent US20120135089A1, “E3 LIGASE INHIBITORS” (priority 2009, published 2012)
Counter-ions that a name gives are not always drawn. Non-standard residues stand in square brackets, D forms with d. Residues, ends and D or L forms follow the SMILES beside them. *: point of attachment. Nle = CCCC[C@H](N)C(=O)O; Cbz = O=C(OCc1ccccc1)*

Tests used:
[1] = test system: p53-Ser15 phosphorylation; assay: p53-Ser15 phosphorylation in RKO cells (Western blot); assay type: cell-based, human; settings: 6 hours
Procedure: (§1) H1229 cells were transfected with Mdm2-Flag or remained untransfected. Cells were treated with 5 μg/ml (14 μM) MEL23, 5 μg/ml (15 μM) MEL24, 10 μM MG132, or 1 μg/ml of doxorubicin for 6 hours. Cells were lysed and analyzed by Western blotting using anti-Mdm2 and anti-actin antibodies. The lower band indicated with a star seen with the Mdm2 antibody is a non-specific band. NT indicates a no treatment control. […] RKO and RK0-E6 cells were treated with 5 μg/ml (14 μM) MEL23, 5 μg/ml (15 μM) MEL24, 10 μM MG132, 0.5 μg/ml doxorubicin, 0.5 μg/ml camptothecin or 25 μg/ml Etoposide for 6 hours. Cells were lysed and analyzed by Western blotting using anti-Mdm2, anti-p53, and anti-actin antibodies. The lower band indicated with a star seen with the anti-Mdm2 antibody is a non-specific band. […] RKO cells were treated with 5 μg/ml (14 μM) MEL23, 5 μg/ml (15 μM) MEL24, 10 μM MG132 or 2 μg/ml doxorubicin for 6 hours. Cells were lysed and analyzed by Western blotting using anti-Mdm2, anti-p53, anti-phospho-Ser15 p53, and anti-eiF4E antibodies.
(§2) Cells were seeded and treated with the indicated compound(s). Cells were lysed after each time point in a buffer of 50 mM TrisHCl pH 7.5, 200 mM NaCl, 0.5% NP-40, and 1 complete mini EDTA-free protease inhibitor cocktail tablet per 10 mL of buffer (Roche, Cat. No. 8360170). Protein content was quantified using a Biorad protein assay reagent (Bio-Rad Laboratories, Hercules, Calif., Cat. No. 500-0006). SDS sample buffer was added to the samples, and the mixture was boiled for 5 minutes. Equal amounts of protein were resolved on a 1D SDS-PAGE gel. Following separation proteins were transferred to nitrocellulose membrane, blocked with 5% milk, and then incubated with primary antibody overnight at 4° C. The membrane was incubated with secondary-HRP antibody for 45 minutes at room temperature and developed with SuperSignal West Pico Substrate (Pierce, Rockford, Ill., Cat. No. 34080).

Mdm2 and p53 levels = assay: Western blot of Mdm2 and p53 protein levels in cell lines; assay type: cell-based, human; settings: 6 hours; for p53 levels in RKO and RKO-E6 cells: isogenic RKO and RKO-E6 (HPV-E6) cells
Procedure: (§3) Cells were plated in 384-well format and treated with MG132 (2 hours) or cycloheximide (30 minutes). Steadylite luminescence buffer (PerkinElmer) was added and the relative luminescence levels determined on a Victor3 Plate Reader. Each graph represents the median of 5 replicates normalized to a no treatment control, and one standard deviation is shown. […] The graphs and EC50 values were determined using Graphpad PRISM®. […] U2OS, RKO, and HCT116 cells (p53 wild-type) were incubated with 5 μg/ml (14 μM) of MEL23, 5 μg/ml (15 μM) of MEL24, or 10 μM of MG132 for 6 hours. Cells were lysed and analyzed by Western blotting using anti-Mdm2, anti-p53, and anti-eIF4E antibodies. NT indicates a no treatment control. […] MCF7 cells (p53 wild-type) were incubated with 30 μg/ml (51 μM) etoposide alone or in combination with 50 μM AlIn or 5 μg/ml (14 μM) MEL23, or 5 μg/ml (15 μM) MEL24 for 16 hours. Cells were lysed and analyzed by Western blotting using anti-MDMX and anti-actin antibodies.
as §1, §2
Cells were lysed and analyzed by Western blotting using anti-Mdm2, anti-p53, and anti-actin antibodies. The lower band seen with the Mdm2 antibody is a non-specific band. NT indicates no treatment control.
Referring now to FIG. 28e, endogenous Mdm2 and p53 protein levels with MEL17 treatment are shown. Briefly, U2OS, RKO, and HCT116 cells (p53 wild-type) were incubated with 5 μg/ml of MEL17 or 10 μM of MG132 for 6 hours. Cells were lysed and analyzed by Western blotting using anti-Mdm2, anti-p53, and anti-actin antibodies. The lower band seen with the Mdm2 antibody is a non-specific band.

MdmX = assay: etoposide-induced MdmX degradation in MCF7 cells (Western blot); assay type: cell-based, human; settings: etoposide 30 μg/ml, 16 hours
Procedure: as §3, §2

p53 ubiquitination = assay: cell-based p53 ubiquitination assay in H1299 cells; design: species or system human; settings: H1299 transfected with p53, Mdm2, ubiquitin; 10 μg/ml pre-treatment, 10 μM MG132
Procedure: To obtain the results shown in FIG. 4A, Mdm2-luciferase cells were transfected with ubiquitin-HA and treated 8 hours later with 10 μg/ml (28 μM) MEL23, 10 μg/ml (31 μM) MEL24, or a DMSO control. After 16 hours, cells were additionally treated with 10 μM MG132 or a DMSO control. After 3 hours, cells were lysed and immunoprecipitated for 3 hours with anti-HA affinity matrix. Total lysates and immunoprecipitated samples were analyzed by Western blotting using anti-Mdm2 antibody. NT indicates a no treatment control. […] After 8 hours, cells were treated with 10 μg/ml (28 μM) MEL23, 10 μg/ml (31 μM) MEL24, or a DMSO control. After 16 hours, cells were additionally treated with 10 μM MG132 or a DMSO control. After 3 hours cells were lysed and analyzed by Western blotting using anti-p53 antibody. “p53-Ub” indicates the slower migrating species of the protein that are the ubiquitin-conjugated forms.
To test the effects of the MEL compounds on p53 ubiquitination, H1299 cells were transfected with plasmids expressing p53, Mdm2, and ubiquitin and pre-treated with 10 μg/ml MEL23 or MEL24, followed by treatment with 10 μM MG132. Ubiquitination of p53 was analyzed by Western blotting. […] In fact, the half-life of p53 increased from an hour to greater than 6 hours with 5 μg/ml MEL23 treatment (FIG. 32). Thus, treatment with MEL23 and MEL24 inhibits ubiquitin conjugation to Mdm2 and p53.

[2] = target: T1, Mdm2-luciferase fusion protein (Homo sapiens, UniProt Q00987); assay: cell-based Mdm2 auto-ubiquitination luminescence assay, Mdm2-luciferase cell line; settings: 384-well format
T1 construct: Using full-length Mdm2 allowed for the presence of all domains of Mdm2; expressed in transfected cells
T1 sequence (Q00987 whole entry, the tested form may be a part): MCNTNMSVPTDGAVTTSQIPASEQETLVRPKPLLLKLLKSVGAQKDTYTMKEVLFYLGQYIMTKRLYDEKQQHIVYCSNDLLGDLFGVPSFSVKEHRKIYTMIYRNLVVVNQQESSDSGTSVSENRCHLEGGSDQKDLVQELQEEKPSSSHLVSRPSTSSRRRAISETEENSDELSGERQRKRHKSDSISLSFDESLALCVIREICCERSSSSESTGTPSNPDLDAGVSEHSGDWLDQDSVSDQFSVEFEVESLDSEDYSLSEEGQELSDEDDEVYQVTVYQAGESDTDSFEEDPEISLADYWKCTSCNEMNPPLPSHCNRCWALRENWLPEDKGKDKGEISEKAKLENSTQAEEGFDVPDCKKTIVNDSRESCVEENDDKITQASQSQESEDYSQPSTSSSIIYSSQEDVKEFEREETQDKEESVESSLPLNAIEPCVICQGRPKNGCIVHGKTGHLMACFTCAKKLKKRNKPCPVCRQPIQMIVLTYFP
Procedure: as §3
The Mdm2-luciferase cell line was seeded at 7,500 cells per well, in 384-well white plates (PerkinElmer, Waltham, Mass., Cat. No. 6007688), in 27 μl of media (DMEM with FBS and P/S). Assay plates with cells were incubated at 37° C. overnight to allow cells to adhere. After 24 hours, 2 μl from the ‘mother’ plate (4 mg/ml) was transferred to a ‘daughter plate’ containing 148 μl media in order to dilute the compound 1:75. Next, 3 μl from each well of the ‘daughter plates’ was added to triplicate assay plates for a final concentration of 5.33 μg/ml. Assay plates were incubated at 37° C. for 2 hours. Then the cells were lysed with the addition of 30 μl of luminescence buffer (PerkinElmer, Cat. No. 6016989), and the plates were incubated at room temperature for 30 minutes before being analyzed on a Victor3 Plate Reader (PerkinElmer) for luminescence. […] All repurchased compounds were tested in a 2-fold dilution series via the same protocol as the primary screening. All transfers were conducted using a BioMek (Beckman Coulter, Fullerton, Calif.). […] This was determined by comparing the negative control, no treatment, to the positive control, 10 μM MG132.
To identify Mdm2 E3 ligase inhibitors, a high-throughput cellular assay to measure changes in Mdm2 auto-ubiquitination and degradation was designed. This assay took advantage of the fact that Mdm2 can regulate itself in cells through ubiquitination and degradation (8). Two fusion proteins were constructed for the assay: (a) a wild-type Mdm2-luciferase fusion protein, which can auto-ubiquitinate and thereby target itself for degradation; and (b) a mutant Mdm2(C464A)-luciferase fusion protein. Both fusion proteins were constructed with luciferase N-terminal to Mdm2. The C464A mutation disrupts a metal binding site in the RING domain, thereby preventing Mdm2 E3 ligase activity (8). Small molecules that increase the luminescence of the Mdm2-luciferase fusion protein without increasing the luminescence of the Mdm2(C464A)-luciferase fusion protein are likely inhibiting Mdm2 E3 ligase activity or the proteasomal degradation of Mdm2. Alternatively, small molecules that increase the luminescence of both fusion proteins are likely affecting transcription, translation, or have a general cellular impact that is not dependent on the E3 ligase activity of Mdm2 or proteasomal degradation.

| Structure (SMILES) | p53 levels in RKO and RKO-E6 cells (Mdm2 and p53 levels) | etoposide-induced MdmX degradation (MdmX) | luminescence of the Mdm2-luciferase cell line [2] | other results |
| --- | --- | --- | --- | --- |
| COc1cccc2c1C(=O)c1c(O)c3c(c(O)c1C2=O)C[C@@](O)(C(=O)CO)C[C@@H]3O[C@H]1C[C@H](N)[C@H](O)[C@H](C)O1 [doxorubicin, doxorubicin hydrochloride, reference compound] | increased p53 in both cell lines |  |  | phosphorylation of p53 at serine-15 [1]: strongly induced; levels of endogenous and ectopically expressed Mdm2 (Mdm2 and p53 levels; p53-null H1299 cells): no effect on Mdm2 levels |
| CCCC[C@@H](C=O)NC(=O)[C@H](CC(C)C)NC(=O)[C@H](CC(C)C)NC(C)=O [ALLN, N-Acetyl-Leu-Leu-Nle-CHO, reference compound] (Ac-Leu-Leu-[Nle]-aldehyde) |  | degradation could be prevented |  |  |
| CC(C)C[C@@H](C=O)NC(=O)[C@H](CC(C)C)NC(=O)[C@H](CC(C)C)NC(=O)OCc1ccccc1 [MG132, Z-Leu-Leu-Leu-aldehyde, reference compound] (Cbz-Leu-Leu-Leu-aldehyde) | increased p53 in both cell lines |  | increased the levels of the Mdm2-luciferase protein | p53 ubiquitination in cells (p53 ubiquitination): significant increase in p53 ubiquitination |
| C[C@@H]1C[C@@H]([C@H](O)CC2CC(=O)NC(=O)C2)C(=O)[C@@H](C)C1 [cycloheximide, reference compound] |  |  | selectively decreased the luminescence of the Mdm2-luciferase protein |  |
| CC[C@@]1(O)C(=O)OCc2c1cc1n(c2=O)Cc2cc3ccccc3nc2-1 [camptothecin, reference compound] | increased p53 in both cell lines |  |  |  |
| COc1cc([C@@H]2c3cc4c(cc3[C@@H](O[C@@H]3O[C@@H]5CO[C@@H](C)O[C@H]5[C@H](O)[C@H]3O)[C@H]3COC(=O)[C@H]23)OCO4)cc(OC)c1O [etoposide, reference compound] | increased p53 in both cell lines | MdmX levels decreased substantially |  |  |
